Patent US20210017180A1, “PYCLEN-BASED MACROCYCLIC LIGANDS, CHELATES THEREOF AND USES THEREOF” (CENTRE NATIONAL DE LA RECHERCHE SCIENTIFIQUE, priority 2018, published 2021)

Assay: Brightness B = Φ * εmax
Assay type: physicochemical
Conditions: versus chelate of unsubstituted ligand (Table 7)
Description: • “Brightness (B)” refers to the amount of radiation emitted by a chromophore or dye. In the case of one-photon absorption, B is defined as the product of the emission quantum yield (Φ) by the molar absorption coefficient (ε), i.e., B=ε·Φ, at a given excitation wavelength. In the case of two-photon absorption, B is defined as the product of the emission quantum yield (Φ) by the cross section (σ), i.e., […], at a given excitation wavelength. • “Carboxylate ester” refers to an ester of a molecule, said molecule comprising at least one carboxylic acid function (—COOH), wherein the ester is formed by esterification of at least one carboxylic acid function of the molecule. Preferred carboxylic esters are methyl esters. “Mono-ester”, “di-ester” and “tri-ester” respectively refers to esters wherein exactly one, two and three carboxylic acid functions have been esterified. • “Carboxylate salt” refers to a salt of a molecule, said molecule comprising at least one carboxylic acid function (—COOH), wherein the salt is formed by deprotonation of at least one carboxylic acid function of the molecule. Preferred carboxylic salts are potassium or sodium salts, more preferably potassium salts. […]

Row | Structure (SMILES) | increase in brightness of europium chelate on substitution of picolinate arms by chromophore
1 | COCCOCCOCCOc1ccc(C#Cc2cc(CN3CCN(CC(=O)[O-])Cc4cccc(n4)CN(Cc4cc(C#Cc5ccc(OCCOCCOCCOC)cc5)cc(C(=O)[O-])n4)CC3)nc(C(=O)[O-])c2)cc1.[K+].[K+].[K+] [Complex S1, potassium 6,6′-((9-(carboxylatomethyl)-3,6,9-triaza-1(2,6)-pyridinacyclodecaphane-3,6-diyl)bis(methylene)) bis(4-((4-(2-(2-(2-methoxyethoxy)ethoxy)ethoxy)phenyl)ethynyl) picolinate)] | about 4 fold
2 | COCCOCCOCCOc1ccc(C#Cc2cc(CN3CCN(CC(=O)[O-])CCN(Cc4cc(C#Cc5ccc(OCCOCCOCCOC)cc5)cc(C(=O)[O-])n4)Cc4cccc(n4)C3)nc(C(=O)[O-])c2)cc1.[K+].[K+].[K+] [Complex S4, potassium 6,6′-((6-(carboxylatomethyl)-3,6,9-triaza-1(2,6)-pyridinacyclodecaphane-3,9-diyl)bis(methylene)) bis(4-((4-(2-(2-(2-methoxyethoxy)ethoxy)ethoxy)phenyl)ethynyl) picolinate)] | about 3 fold
